In article PMC4657899, “Design, Synthesis and In Vitro Activity of Anticancer Styrylquinolines. The p53 Independent Mechanism of Action” (PLoS ONE, 2015):

What was measured:
GM 07492 = assay: MTS cytotoxicity assay, normal fibroblasts GM 07492; assay type: cell-based; details: Fibroblast, 72 h incubation, normal human fibroblasts, mean ± SD
Description: (§1) The human colon adenocarcinoma cell line HCT116 along with wild type p53 (p53^+/+) were obtained from the ATCC. The normal human fibroblast cell line GM 07492 and HCT116 with a p53 deletion (p53^-/-) were kindly provided by prof. M. Rusin from Maria Sklodowska-Curie Memorial Cancer Center and Institute of Oncology in Gliwice, Poland. Cells were grown as monolayer cultures in 75 cm^2 flasks (Nunc) in Dulbecco’s modified Eagle’s medium with an antibiotic gentamicin (200 μL/100 mL medium). DMEM for HCT116 were supplemented with 12% heat-inactivated fetal bovine serum (Gibco) and for GM 07492 with 15% fetal bovine serum (Gibco). Cells were cultured under standard conditions at 37°C in a humidified atmosphere at 5% CO2.
(§2) The cells were seeded in 96-well plates 24 h before the addition of the compounds that were tested. The assay was performed following a 72 h incubation with varying concentrations of the agents that were tested. The results were calculated as IC50 values (using GraphPad Prism 5). Each individual compound was tested in triplicate in a single experiment with each experiment being repeated three times. After a 72 h incubation with the compounds that were tested, 20 μL of The CellTiter 96®AQueous One Solution—MTS (Promega) solution was added to each well (with 100 μL DMEM without phenol red) and incubated for 1 h at 37°C. The optical densities of the samples were analyzed at 490 nm. Results were expressed as a percentage of the control.

HCT116 (p53+/+) = assay: MTS anti-proliferative assay, HCT116 (p53+/+); assay type: cell-based, human; details: Homo sapiens, HCT-116, 72 h incubation, mean ± SD
Description: as §1, §2

HCT116 (p53-/-) = assay: MTS anti-proliferative assay, HCT116 (p53-/-); assay type: cell-based, human; details: for IC50: Homo sapiens, HCT-116, MTS, 72 h incubation, mean ± SD
Description: as §1, §2

PARP in HCT-116 cells = assay: Immunoblotting, PARP cleavage; assay type: cell-based, human; details: 0, 10, 20, 40 μM
Description: Specific antibodies were purchased from Sigma-Aldrich (anti-PARP, anti-tubulin and peroxidase-labeled secondary antibodies). Briefly, cellular lysates were prepared by harvesting cells in a Laemmli sample buffer. Proteins were separated on SDS-polyacrylamide gels and electroblotted onto nitrocellulose membranes. After blocking, the membranes were incubated with specific primary antibodies overnight, washed and then incubated with peroxidase-conjugated secondary antibodies. Finally, peroxidase activity was detected with ECL+ reagents (AP Biotech) using a CCD camera LAS-4000 (Fujifilm).

[1] = tested on: caspase-3 and -7 in HCT116 (p53+/+) cells; assay: Caspase-Glo 3/7 assay, HCT116 (p53+/+); assay type: cell-based, human; details: IC50 concentration, 48 h, relative to doxorubicin
Description: (§3) To measure caspase-3 and -7 activities, a luminescent Caspase-Glo 3/7 assay was performed. HCT116 (p53^+/+) and (p53^-/-) cells were seeded onto black 96-well plates at a density of 3,500 cells/well. […] After 48 h a Caspase-Glo 3/7 Assay (Promega) was performed according to the manufacturer’s instructions. After adding 100 μL of Caspase3/7 GloReagent, cells were incubated for 2.5 h at room temperature. The luminescence was measured using a multi-plate reader (Synergy 4, Bio Tek) with an integration time of 1 second per well. The experiments were performed in duplicate.

[2] = tested on: caspase-3 and -7 in HCT116 (p53-/-) cells; assay: Caspase-Glo 3/7 assay, HCT116 (p53-/-); assay type: cell-based, human; details: IC50 concentration, 48 h
Description: as §3

Calf-thymus DNA (CT-DNA) = assay: Spectrophotometric DNA binding (intercalation) study with CT-DNA; details: for % hypochromism: 1.5 h 37°C, Tris-HCl pH 7.9; for % hypochromism / Δε: at the (first) absorption band (CP-31398: 312); for shift of the wavelength of maximum absorption, alone vs DNA-bound / Changes in absorbance: S3 Table; for Changes in absorbance: with CT-DNA
Description: For the DNA binding studies, Calf-thymus DNA (CT-DNA) was purchased from Sigma Aldrich. The lyophilized CT-DNA was dissolved in 10 mM Tris-HCl, pH 7.9, mixed gently and left overnight at 4°C. Then, the concentration of CT-DNA was determined from the absorbance at 260 nm using an extinction coefficient of 6600 M^-1cm^-1. […] Afterwards, 18 μM CT-DNA was added to the prepared solutions and were incubated for 1.5 h at 37°C with occasional vortexing. Absorption spectra were measured using a Hitachi U-2900 spectrophotometer in range of 200–600 nm. All absorption spectra were imported and compared in OriginPro 8.0.

HCT116 p53-/- cells = tested on: HCT116 p53-/- cells; set-up: method as in PMID 12027451; details: cited from earlier work
HCT116 +/+ = assay: Trypan blue staining test, HCT116 +/+; assay type: cell-based, human; details: Homo sapiens, HCT-116; S2 Table, trypan blue cell counting, 72 h
Description: (§4) The cells were seeded in 3 cm Petri dishes (Nunc) and incubated at 37°C. After 24h, solutions […]
(§5) a 72 h incubation with tested compounds, the cells were trypsinize d with 0.05% Trypsin -EDTA solution (Sigma). Then, 90µl of suspension cells transferred into 96 -well plate containing 10µl Trypan blue reagent in wells. The cells were counted under an optical inverted microscope Olympus CKX31. The results from three independent experiment were calculated as IC 50 values using GraphPad Prism 5 software.

HCT116 -/- = assay: Trypan blue staining test, HCT116 -/-; assay type: cell-based, human; details: Homo sapiens, HCT-116; S2 Table, trypan blue cell counting, 72 h
Description: as §4, §5

colon cancer cells = tested on: colon cancer cells; set-up: method as in Arafa et al.; details: ref Arafa et al.; cited from earlier work
P388 cell line = tested on: P388 cell line; set-up: method as in PMID 17904844; details: cited from earlier work
SK-N-MC cell line = tested on: SK-N-MC cell line; set-up: method as in PMID 17142046; details: cited from earlier work
[3] = 18 μM CT-DNA, CP-31398 absorption band 350

| Structure (SMILES) | IC50 (GM 07492) | IC50 (HCT116 (p53+/+)) | IC50 (HCT116 (p53-/-)) | melting point | other results |
| --- | --- | --- | --- | --- | --- |
| CC(=O)Oc1cccc2ccc(C=Cc3ccccc3F)nc12 [12b] | > 25 µM | 12.1 ± 3.02 µM | 5.78 ± 0.78 µM | 117 °C | times more effective against HCT116 (p53-/-) than against wild type cells (HCT116 (p53-/-); ratio of MTS IC50 values): 2–3 times |
| COc1cccc(C=Cc2ccc3cccc(O)c3n2)c1 [13b] | > 25 µM | 24.6 ± 4.36 µM | 18.4 ± 1.36 µM |  |  |
| CC(=O)Oc1ccc(C=Cc2ccc3cccc(OC(C)=O)c3n2)c(OC(C)=O)c1OC(C)=O [14b] |  | 17.9 ± 1.67 µM | 11.4 ± 1.02 µM | 194 °C |  |
| CCOc1ccccc1C=Cc1ccc2cccc(O)c2n1 [15b, 2 – [2-(2-Ethoxyphenyl)vinyl]quinolin-8-ol] |  | 15.8 ± 3.32 µM | 12.8 ± 3.53 µM | 100 °C |  |
| CCOc1ccc(C=Cc2ccc3cccc(O)c3n2)cc1 [16b, 2 – [2-(4-Ethoxyphenyl)vinyl]quinolin-8-ol] |  | > 25 µM | 16.1 ± 4.84 µM | 130 °C |  |
| Oc1cccc2ccc(C=Cc3ccccc3Cl)nc12 [17b, 2 – [2-(2-Chlorophenyl)vinyl]quinolin-8-ol] | 20.2 ± 6.52 µM | 9.84 ± 1.79 µM | 7.97 ± 3.24 µM |  | PARP cleavage (PARP in HCT-116 cells): clearly observable |
| Oc1ccccc1C=Cc1ccc2cccc(O)c2n1 [18b, 2 – [2-(2-Hydroxyphenyl)vinyl]quinolin-8-ol] |  | 16.1 ± 0.88 µM | 15.2 ± 1.31 µM | 316 °C |  |
| Oc1cccc(C=Cc2ccc3cccc(O)c3n2)c1 [19b, 2 – [2-(3-Hydroxyphenyl)vinyl]quinolin-8-ol] |  | 16.3 µM | 10.6 ± 1.23 µM |  |  |
| Oc1ccc(C=Cc2ccc3cccc(O)c3n2)c(O)c1 [20b, 2 – [2-(2,4-Dihydroxyphenyl)vinyl]quinolin-8-ol] |  | > 25 µM | > 25 µM | 273 °C |  |
| COc1ccc(/C=C/c2nc(NCCCN(C)C)c3ccccc3n2)cc1 [CP-31398] | 12.3 ± 0.54 µM | 18.6 ± 0.92 µM | 26.3 ± 1.41 µM |  | Caspase-3/7 activity in wild type cells [1]: two times higher than doxorubicin; Caspase-3/7 activity in p53-/- cells [2]: did not increase the activity of caspases; % hypochromism (Calf-thymus DNA (CT-DNA); 18 μM CT-DNA): 41,4%; % hypochromism, second absorption band (Calf-thymus DNA (CT-DNA); [3]): 37,4%; Δε, second absorption band (Calf-thymus DNA (CT-DNA); [3]): 1693,3 M−1 cm−1; Δε (Calf-thymus DNA (CT-DNA); 18 μM CT-DNA): 1515,6 M−1 cm−1; shift of the wavelength of maximum absorption, alone vs DNA-bound (Calf-thymus DNA (CT-DNA); 18 μM CT-DNA): 0; Changes in absorbance (Calf-thymus DNA (CT-DNA)): hypochromism; activity against HCT116 p53-/- cells versus wild-type (p53+/+) (HCT116 p53-/- cells): several times less active |
| COc1cccc2c1C(=O)c1c(O)c3c(c(O)c1C2=O)C[C@@](O)(C(=O)CO)C[C@@H]3O[C@H]1C[C@H](N)[C@H](O)[C@H](C)O1 [Doxorubicin] | 3.38 ± 1.29 µM | 5.95 ± 0.5 µM | 1.65 ± 0.21 µM |  | IC50 (HCT116 +/+): 2.83 µM; IC50 (HCT116 -/-): 1.28 µM; % hypochromism (Calf-thymus DNA (CT-DNA); 18 μM CT-DNA): 34.2%; % hypochromism (Calf-thymus DNA (CT-DNA); 18 μM CT-DNA, listed as DOX): 34,2%; Δε (Calf-thymus DNA (CT-DNA); 18 μM CT-DNA): 3235,6 M−1 cm−1; shift of the wavelength of maximum absorption, alone vs DNA-bound (Calf-thymus DNA (CT-DNA); 18 μM CT-DNA): 10; Changes in absorbance (Calf-thymus DNA (CT-DNA)): hypochromism; shift in the wavelength on DNA binding (Calf-thymus DNA (CT-DNA); blue shift for 5b, 6b, red shift for doxorubicin): 10 nm |
| COc1cc(/C=N/NC(=O)COc2c(Br)cc(Br)c3cccnc23)cnc1O [III] |  |  |  |  | IC50 (colon cancer cells): 4.7 µM |
| Cc1ccc2c(n1)C(=O)C(NC(=O)/C=C/c1ccccc1)=CC2=O [IV] |  |  |  |  | IC50 (P388 cell line): 1.44 µM |
| Oc1cccc2ccc(/C=C/c3ccc(Cl)cc3)nc12 [I] |  |  |  |  | IC50 (SK-N-MC cell line): 0.77 µM |
